# Source: US20240402196A1 (Exact Sciences Corporation, priority 2018, published 2024)
# Tests used:
# [1] = target: T1, Hb (Homo sapiens, UniProt P68871+P69905); test: Appendix B additive screen, % Hb Recovery
# T1 construct: To assess the stability of hemoglobin in stool samples, samples were exposed to simulated shipping stress conditions; from tissue; host or cells: stool samples
# [2] = target: T2, hemoglobin in stool samples (Homo sapiens, UniProt P68871+P69905); test: 3-Day shipping simulation, hemoglobin % recovery by ELISA; design: from tissue; host or cells: stool samples;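 also: stool samples put through shipping stress in a thermal cycler, hemoglobin quantified by ELISA before and after, stability given as post-stress % of the pre-stress level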
# [3] = target: T2, hemoglobin in stool samples; test: Accelerated shipping simulation (35C 16 hour challenge), hemoglobin % recovery by ELISA; design: from tissue; host or cells: stool samples;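 also: stool hemoglobin measured by ELISA before and after thermal-cycler shipping stress, stability given as percent of pre-stress hemoglobin recovered afterwards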
# [4] = target: T3, hemoglobin (Hb) (Homo sapiens, UniProt P68871+P69905); test: Appendix B: additives in Hb Collection Buffer, % Hb Recovery
# T3 construct: To assess the stability of hemoglobin in stool samples, samples were exposed to simulated shipping stress conditions; from tissue; host or cells: stool samples
# [5] = target: T2, hemoglobin in stool samples; test: 7-Day shipping simulation, hemoglobin % recovery by ELISA; design: from tissue; host or cells: stool samples
# Method: (§1) To assess the stability of hemoglobin in stool samples, samples were exposed to simulated shipping stress conditions using a thermal cycler. […] An ELISA based detection method is used to determine the hemoglobin concentrations of samples before and after exposure to the shipping simulation. Hemoglobin stability is calculated as a % recovery of hemoglobin after the samples have been exposed to the shipping simulation.
# To assess the stability of hemoglobin in stool samples beyond 3 days, a 7-Day shipping simulation was created.
# [6] = target: T2, hemoglobin in stool samples; test: 3-Day extreme temperature shipping simulation, hemoglobin % recovery by ELISA; design: from tissue; host or cells: stool samples
# Method: as §1
# As an additional challenge, a shipping simulation meant to represent a “worst case” scenario was created using extreme temperatures.
# [7] = concentrations and buffer pH 6.5 or 7.4 as in the 13th table
# [8] = concentrations and buffer pH 6.5 or 7.4 as in the 14th table
# [9] = concentrations and buffer pH 6.5 or 7.4 as in the 15th table
# T2 sequence (P69905 2-142 limits assumed): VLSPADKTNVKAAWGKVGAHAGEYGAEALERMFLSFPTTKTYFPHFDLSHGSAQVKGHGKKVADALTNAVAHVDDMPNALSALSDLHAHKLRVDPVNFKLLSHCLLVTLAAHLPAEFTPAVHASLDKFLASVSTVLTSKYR
# T2 sequence (P68871 2-147 limits assumed): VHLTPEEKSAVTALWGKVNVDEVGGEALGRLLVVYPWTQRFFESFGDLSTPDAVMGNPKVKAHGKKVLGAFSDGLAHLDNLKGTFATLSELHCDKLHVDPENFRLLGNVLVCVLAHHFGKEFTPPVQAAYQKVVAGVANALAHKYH
# T3 sequence (P69905 2-142 limits assumed): as the sequence (P69905 2-142 limits assumed) above
# T3 sequence (P68871 2-147 limits assumed): as the sequence (P68871 2-147 limits assumed) above
# T1 sequence (P69905 2-142 limits assumed): as the sequence (P69905 2-142 limits assumed) above
# T1 sequence (P68871 2-147 limits assumed): as the sequence (P68871 2-147 limits assumed) above
compound,measurement,setting,value
Calcium Gluconate,Results,[1],No Improvement
Magnesium Gluconate,Results,[2]; additive concentration 5 mM,Magnesium Cation shows
same,Results,[2]; additive concentration 10 mM,Magnesium Cation shows
same,Results,[2]; additive concentration 20 mM,Magnesium Cation shows
same,Results,[2]; additive concentration 30 mM,Magnesium Cation shows
same,Results,[2]; additive concentration 40 mM,Magnesium Cation shows
same,Results,[2]; additive concentration 50 mM,Magnesium Cation shows
same,Results,[3]; additive concentration 1.2 uM,No Improvement
same,Results,[3]; additive concentration 12 uM,No Improvement
same,Results,[3]; additive concentration 120 uM,No Improvement
same,Results,[1],No Improvement
Sodium hydroxylmethyl glycinate,Results,[1],No Improvement
C=CC1=C(C)c2cc3[n-]c(cc4nc(cc5[n-]c(cc1n2)c(C)c5C=C)C(C)=C4CCC(=O)O)c(CCC(=O)O)c3C.[Zn+2] [Protoprophyrin IX Zn],Results,[1],No Improvement
CCCCCCn1cc[n+](C)c1.[Cl-] [1-hexyl-3-methylimidazolium chloride],Results,[1],No Improvement
Cl.Cn1sccc1=O [2-methyl-4-isothiazolin-3-one-hydrochloride],Results,[1],No Improvement
Cl.N [Ammonium Chloride],Results,[1],No Improvement
[Cl-].[Li+] [Lithium Chloride],Results,[1],No Improvement
[Cl-].[K+] [Potassium Chloride],Results,[1],No Improvement
"C=CC1=C(C)c2cc3[n-]c(cc4nc(cc5[n-]c(cc1n2)c(C)c5C=C)C(C)=C4CCC(=O)O)c(CCC(=O)O)c3C.[Zn+2] [Protoporphyrin IX Zn, Protoporphyrin IX Zinc]",Results,[4]; Additive Concentration 0.001 uM,No Improvement
same,Results,[4]; Additive Concentration 0.01 uM,Improvement in % Hb
same,Results,[4]; Additive Concentration 0.1 uM,Improvement in % Hb
same,Results,[4]; Additive Concentration 1 uM,Improvement in % Hb
same,Results,[4]; additive concentration 10 uM,Improvement in % Hb
same,Results,[4]; additive concentration 100 uM,Improvement in % Hb
same,Notes (Hb stability vs Hb Collection Buffer),[2]; [7],Improved
same,Notes (Hb stability vs Hb Collection Buffer),[5]; [8],Improved
same,Results,"[3]; additive concentration 1 uM, pH 6.5",Improvement
same,Results,"[3]; additive concentration 1 uM, pH 7.4",Improvement
same,Notes (Hb stability vs Hb Collection Buffer),[6]; [9],Improved
O=C([O-])[O-].[Na+].[Na+] [Sodium Carbonate],Results,[1],No Improvement
O=S([O-])O.[Na+] [Sodium Bisulfite],Results,[1],No Improvement
CC(=O)[O-].[Na+] [Sodium Acetate],Results,[1],No Improvement
O=S(=O)([O-])[O-].[Mg+2] [Magnesium Sulfate],Results,[4]; Additive Concentration 10 mM,Improvement in % Hb
same,Results,[2]; Additive Concentration 10 mM,Magnesium Cation shows
same,Results,[2]; additive concentration 0.001M,Magnesium Cation shows
same,Results,[2]; additive concentration 5 mM,Magnesium Cation shows
same,Results,[2]; additive concentration 0.01M,Magnesium Cation shows
same,Results,[2]; additive concentration 10 mM,Magnesium Cation shows
same,Results,[2]; additive concentration 20 mM,Magnesium Cation shows
same,Results,[2]; additive concentration 30 mM,Magnesium Cation shows
same,Results,[2]; additive concentration 40 mM,Magnesium Cation shows
same,Results,[2]; additive concentration 0.05M,Magnesium Cation shows
same,Results,[2]; additive concentration 50 mM,Magnesium Cation shows
same,Notes (Hb stability vs Hb Collection Buffer),[2]; additive concentrations as in the 8th table,Improved Hb
same,Notes (Hb stability vs Hb Collection Buffer),[5]; additive concentrations as in the 9th table,Improved Hb
same,Results,[3]; additive concentration 10 mM,Improvement
same,Notes (Hb stability vs Hb Collection Buffer),[6]; additive concentrations as in the 10th table,Improved Hb
[Br-].[Na+] [Sodium Bromide],Results,[1],No Improvement
O=C([O-])c1ccccc1.[Na+] [Sodium Benzoate],Results,[2]; Additive Concentration 0.03%,No improvement
same,Results,[2]; Additive Concentration 0.04%,No improvement
same,Results,[2]; Additive Concentration 0.05%,No improvement
same,Results,[2]; Additive Concentration 0.06%,No improvement
same,Results,[2]; Additive Concentration 0.10%,No improvement
same,Results,[2]; Additive Concentration 0.50%,No improvement
same,Results,[2]; Additive Concentration 1%,No improvement
same,Results,[1],No Improvement
[Cl-].[Cl-].[Mg+2] [Magnesium Chloride],Results,[2]; additive concentration 5 mM,Magnesium Cation shows
same,Results,[2]; additive concentration 10 mM,Magnesium Cation shows
same,Results,[2]; additive concentration 20 mM,Magnesium Cation shows
same,Results,[2]; additive concentration 30 mM,Magnesium Cation shows
same,Results,[2]; additive concentration 40 mM,Magnesium Cation shows
same,Results,[2]; additive concentration 50 mM,Magnesium Cation shows
same,Results,[1],Magnesium Cation shows
[Ca+2].[Cl-].[Cl-] [Calcium Chloride (anhydrous)],Results,[1],Calcium cation shows
N.N.O=S(=O)(O)O [Ammonium Sulfate],Results,[1],No Improvement
"O=[N+]([O-])C1(Br)COCOC1 [5-bromo-5-nitro-1,3-dioxane]",Results,[1],No Improvement
N.N.O=C(O)C(=O)O [Ammonium Oxalate],Results,[1],No Improvement
C=CC1=C(C)c2cc3[n-]c(cc4[n-]c(cc5nc(cc1n2)C(C)=C5C=C)c(C)c4CCC(=O)O)c(CCC(=O)O)c3C.[Cl-].[Fe+3] [Hemin],Notes (Hb stability vs Hb Collection Buffer),[2]; [7],Improved
same,Notes (Hb stability vs Hb Collection Buffer),[5]; [8],Improved
same,Results,"[3]; additive concentration 0.0003%, pH 6.5",Improvement
same,Results,[3]; additive concentration 0.0003%; pH 6.4,Improvement in % Hb
same,Results,[3]; additive concentration 0.0003%; pH 6.5,Improvement in % Hb
same,Results,[3]; additive concentration 0.0003%; pH 6.6,Improvement in % Hb
same,Results,[3]; additive concentration 0.0003%; pH 6.7,Improvement in % Hb
same,Results,[3]; additive concentration 0.0003%; pH 6.8,Improvement in % Hb
same,Results,[3]; additive concentration 0.0003%; pH 6.9,Improvement in % Hb
same,Results,[3]; additive concentration 0.0003%; pH 7.0,Improvement in % Hb
same,Results,[3]; additive concentration 0.0003%; pH 7.1,Improvement in % Hb
same,Results,[3]; additive concentration 0.0003%; pH 7.2,Improvement in % Hb
same,Results,[3]; additive concentration 0.0003%; pH 7.3,Improvement in % Hb
same,Results,[3]; additive concentration 0.0003%; pH 7.4,Improvement in % Hb
same,Results,[3]; additive concentration 0.0003%; pH 7.5,Improvement in % Hb
same,Notes (Hb stability vs Hb Collection Buffer),[6]; [9],Improved
CC(=O)[O-].[K+] [Potassium Acetate],Results,[1],No Improvement
O.O.[Ca+2].[Cl-].[Cl-] [Calcium Chloride (dihydrate)],Results,[1],Calcium cation shows
phosphatidylcholine,Results,[1],No Improvement
"[Ca+2].[Cl-].[Cl-] [Calcium Chloride, pH 6.5]",Results,[4]; Additive Concentration 10 mM,No Improvement
[Cl][Fe][Cl] [Iron (2) Chloride],Results,[1],No Improvement
OCCO [Ethylene Glycol],Results,[1],No Improvement
C=CC1=C(C)c2cc3[n-]c(cc4nc(cc5[n-]c(cc1n2)c(C)c5C=C)C(C)=C4CCC(=O)O)c(CCC(=O)O)c3C.[Cu+2] [Protoporphyrin IX Copper],Results,[4]; Additive Concentration 0.1 uM,No Improvement
same,Results,[4]; Additive Concentration 1 uM,No Improvement
same,Results,[4]; additive concentration 10 uM,No Improvement
CC(=O)O.N [Ammonium Acetate],Results,[1],No Improvement
NCC(=O)O [Glycine],Results,[1],No Improvement
CCn1cc[n+](C)c1.[Cl-] [1-ethyl-3-methylimidazolium chloride],Results,[1],No Improvement
O=C([O-])O.[Na+] [Sodium Bicarbonate],Results,[3]; additive concentration 0.0000895 mM,No Improvement
same,Results,[3]; additive concentration 0.000895 mM,No Improvement
same,Results,[3]; additive concentration 0.00895 mM,No Improvement
same,Results,[3]; additive concentration 0.0895 mM,No Improvement
same,Results,[3]; additive concentration 0.895 mM,No Improvement
same,Results,[3]; additive concentration 8.95 mM,No Improvement
same,Results,[1],No Improvement
[O-][Cl+3]([O-])([O-])O [Sodium Perchlorate],Results,[1],No Improvement
C[N+](C)(C)[O-] [Trimethylamine N-oxide (TMANO)],Results,[2]; additive concentration 1.1M,Slight Improvement
same,Results,[2]; additive concentration 2.15M,Slight Improvement
same,Results,[2]; additive concentration 3M,No Improvement
same,Results,[2]; additive concentration 3.5M,No Improvement
same,Results,[2]; additive concentration 4M,No Improvement
same,Results,[3]; additive concentration 500 uM,No Improvement
same,Results,[3]; additive concentration 5 mM,No Improvement
same,Results,[3]; additive concentration 50 mM,No Improvement
same,Results,[3]; additive concentration 87 mM,No Improvement
same,Results,[1],No Improvement
O=P(O)(O)O [Sodium Phosphate],Results,[1],No Improvement
